Laboratory results from ChEMBL document CHEMBL1128384, “Cardioselective antiischemic ATP-sensitive potassium channel openers. 2. Structure-activity studies on benzopyranylcyanoguanidines: modification of the benzopyran ring” (J Med Chem, 1995).

What was measured:
Assay type in all cases: functional
[1] = Ratio of anti-ischemic potency and vasorelaxant potency in rat.
Rattus norvegicus [2] = organism: Rattus norvegicus; assay: In vitro anti-ischemic potency was determined by measurement of concentration necessary for increase in time to contracture by 25% in the globally ischemic rat hearts
Rattus norvegicus [3] = organism: Rattus norvegicus; assay: Vasorelaxant potency was assessed by measurement of inhibition of methoxamine-contracted rat aorta
Rattus norvegicus [4] = organism: Rattus norvegicus; assay: Antiischemic potency was determined by increase in time to contracture at a concentration of 10 uM in the globally ischemic rat hearts

| IC50 (Rattus norvegicus [3]) [µM] | Compound | Ratio [1] | EC25 (Rattus norvegicus [2]) [µM] | Increase (Rattus norvegicus [4]) [%] | Increase (Rattus norvegicus [2]) [%] |
| --- | --- | --- | --- | --- | --- |
| – | CC1(C)c2ccc([N+](=O)[O-])cc2[C@@H](/N=C(\NC#N)Nc2ccccc2)[C@@H]1O (relative stereo) | 18.8 | 10.7 | – | – |
| 14 | CC1(C)C[C@H](/N=C(\NC#N)Nc2ccccc2)c2cc(C#N)ccc2O1 | – | – | 0 | – |
| 6.9 | CC1(C)C=C(/N=C(\NC#N)Nc2ccccc2)c2cc(C#N)ccc2O1 | – | – | 0 | – |
| 8.8 | CC1(C)Oc2cc(-c3ncco3)c(-c3ncco3)cc2[C@@H](/N=C(\NC#N)Nc2ccccc2)[C@@H]1O (relative stereo) | – | – | – | 6 |
| 6.2 | CC1(C)Oc2ccc(C#N)cc2[C@@H](NC(=O)Nc2ccccc2)[C@H]1O | 16.5 | 103 | – | – |
| 9.2 | CC1(C)Oc2ccc(C(F)(F)F)cc2[C@@H](/N=C(\NC#N)Nc2ccccc2)[C@@H]1O (relative stereo) | 0.5 | 10 | – | – |
| 1.3 | CC1(C)C[C@H](NC(=O)Nc2ccccc2)c2cc(C#N)ccc21 | 7.2 | 9.4 | – | – |
| 4 | CC(=O)c1ccc2c(c1)[C@@H](/N=C(\NC#N)Nc1ccccc1)[C@H](O)C(C)(C)O2 (relative stereo) | 2.1 | 8.5 | – | – |
| 1.8 | CC1(C)C[C@H](NC(=O)Nc2ccccc2)c2cc(C#N)ccc2O1 | 2.9 | 5.3 | – | – |
| 59.6 | CC1(C)Oc2ccc(N)cc2[C@@H](/N=C(\NC#N)Nc2ccccc2)[C@@H]1O (relative stereo) | – | – | – | 0 |
| – | CC1(C)Oc2ccc(C#N)cc2[C@@H](NC(=O)Nc2ccccc2)[C@@H]1O | – | 5.1 | – | – |
| – | CC1(C)Nc2ccc(C#N)cc2[C@@H](/N=C(\NC#N)Nc2ccccc2)[C@@H]1O (relative stereo) | – | – | 0 | – |
| 1.1 | CC1(C)Oc2ccc(C(F)(F)F)cc2[C@@H](NC(=O)Nc2ccccc2)[C@@H]1O | 2.5 | 2.7 | – | – |
| – | CC1(C)Oc2ccc(C#N)cc2[C@@H](/N=C(\NC#N)Nc2ccccc2)[C@H]1O (relative stereo) | – | – | 9 | – |
| – | CC1(C)Oc2ccc(C#N)cc2[C@@H](N2CCCC2=O)[C@@H]1O [CROMAKALIM] | 278.1 | 8.9 | – | – |
| 17 | CC1(C)C=C(NC(=O)Nc2ccccc2)c2cc(C#N)ccc2O1 | – | – | 7 | – |
| 1.4 | CC1(C)Oc2cc(-c3ncco3)c(-c3ncco3)cc2[C@@H](NC(=O)Nc2ccccc2)[C@@H]1O | 9.3 | 13 | – | – |
| 1.2 | CC(=O)c1ccc2c(c1)[C@@H](NC(=O)Nc1ccccc1)[C@H](O)C(C)(C)O2 | 3.8 | 4.5 | – | – |
| – | N#Cc1ccc2c(c1)[C@@H](NC(=O)Nc1ccccc1)[C@H](O)CO2 | – | – | 6 | – |
| 1.4 | CC1(C)Oc2ccc(C#N)cc2[C@@H](/N=C(\NC#N)Nc2ccccc2)[C@@H]1O (relative stereo) | 7.9 | 11 | – | – |
| 194 | N#CN/C(=N\[C@@H]1c2cc(C#N)ccc2OC[C@H]1O)Nc1ccccc1 (relative stereo) | – | – | 0 | – |
| 0.18 | CC1(C)c2ccc([N+](=O)[O-])cc2[C@@H](NC(=O)Nc2ccccc2)[C@@H]1O | 36.1 | 6.5 | – | – |
| 2.6 | CC1(C)C[C@H](/N=C(\NC#N)Nc2ccccc2)c2cc(C#N)ccc21 | 8.5 | 22 | – | – |
| 4.4 | CC(=O)O[C@H]1[C@H](NC(=O)Nc2ccccc2)c2cc(C#N)ccc2OC1(C)C | – | – | 3 | – |
| 2.6 | CC(=O)O[C@H]1[C@H](/N=C(\NC#N)Nc2ccccc2)c2cc(C#N)ccc2OC1(C)C (relative stereo) | 2.3 | 6 | – | – |
